From ChEMBL document CHEMBL2424545, “Structure-efficiency relationship of [1,2,4]triazol-3-ylamines as novel nicotinamide isosteres that inhibit tankyrases” (J Med Chem, 2013)
Values after ≈ are worked out from the molar mass of the structure shown.

How the values were obtained:
[1] = biological target: T1, Poly [ADP-ribose] polymerase tankyrase-2 (Homo sapiens, UniProt Q9H2K2); assay: Inhibition of N-terminal GST-tagged TNKS2 (unknown origin) expressed in baculovirus infected sf21 cells after 60 mins by LC-MS analysis
T1 sequence (Q9H2K2 whole entry): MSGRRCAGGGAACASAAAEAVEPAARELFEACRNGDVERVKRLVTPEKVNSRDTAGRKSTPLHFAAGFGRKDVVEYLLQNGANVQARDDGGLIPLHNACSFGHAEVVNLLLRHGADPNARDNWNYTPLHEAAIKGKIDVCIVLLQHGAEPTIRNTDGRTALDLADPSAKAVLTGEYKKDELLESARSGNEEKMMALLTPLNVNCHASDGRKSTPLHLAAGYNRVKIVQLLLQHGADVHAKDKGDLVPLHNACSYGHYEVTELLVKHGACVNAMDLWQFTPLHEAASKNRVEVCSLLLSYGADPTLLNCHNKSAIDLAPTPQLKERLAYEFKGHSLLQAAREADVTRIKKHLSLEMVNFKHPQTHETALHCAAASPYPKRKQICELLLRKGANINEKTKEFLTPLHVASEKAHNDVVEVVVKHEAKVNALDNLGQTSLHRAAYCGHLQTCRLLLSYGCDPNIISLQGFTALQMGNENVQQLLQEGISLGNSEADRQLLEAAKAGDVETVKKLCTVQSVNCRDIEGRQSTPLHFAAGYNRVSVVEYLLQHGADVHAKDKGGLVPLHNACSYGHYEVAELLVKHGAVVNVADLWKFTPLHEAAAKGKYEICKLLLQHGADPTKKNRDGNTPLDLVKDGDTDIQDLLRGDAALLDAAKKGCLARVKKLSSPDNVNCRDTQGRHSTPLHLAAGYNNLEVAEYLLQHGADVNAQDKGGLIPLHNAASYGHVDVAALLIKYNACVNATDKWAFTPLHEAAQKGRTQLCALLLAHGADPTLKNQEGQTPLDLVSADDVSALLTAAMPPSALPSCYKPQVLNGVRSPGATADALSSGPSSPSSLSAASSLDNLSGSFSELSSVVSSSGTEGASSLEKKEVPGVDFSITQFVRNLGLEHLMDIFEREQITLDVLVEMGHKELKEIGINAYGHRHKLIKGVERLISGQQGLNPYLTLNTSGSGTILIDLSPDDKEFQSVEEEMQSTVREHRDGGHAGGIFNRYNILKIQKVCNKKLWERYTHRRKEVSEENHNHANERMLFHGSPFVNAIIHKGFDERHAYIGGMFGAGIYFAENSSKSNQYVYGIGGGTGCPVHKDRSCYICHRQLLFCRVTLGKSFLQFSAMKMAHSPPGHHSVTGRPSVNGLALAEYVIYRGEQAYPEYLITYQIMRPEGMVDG

[2] = Inhibition of Wnt signaling in human HEK293 cells by STF luciferase reporter gene assay
[3] = biological target: Poly [ADP-ribose] polymerase 2 (Homo sapiens, UniProt Q9UGN5); assay: Inhibition of PARP2 (unknown origin) after 60 mins by LC-MS analysis
Sequence of Poly [ADP-ribose] polymerase 2 (Q9UGN5 whole entry): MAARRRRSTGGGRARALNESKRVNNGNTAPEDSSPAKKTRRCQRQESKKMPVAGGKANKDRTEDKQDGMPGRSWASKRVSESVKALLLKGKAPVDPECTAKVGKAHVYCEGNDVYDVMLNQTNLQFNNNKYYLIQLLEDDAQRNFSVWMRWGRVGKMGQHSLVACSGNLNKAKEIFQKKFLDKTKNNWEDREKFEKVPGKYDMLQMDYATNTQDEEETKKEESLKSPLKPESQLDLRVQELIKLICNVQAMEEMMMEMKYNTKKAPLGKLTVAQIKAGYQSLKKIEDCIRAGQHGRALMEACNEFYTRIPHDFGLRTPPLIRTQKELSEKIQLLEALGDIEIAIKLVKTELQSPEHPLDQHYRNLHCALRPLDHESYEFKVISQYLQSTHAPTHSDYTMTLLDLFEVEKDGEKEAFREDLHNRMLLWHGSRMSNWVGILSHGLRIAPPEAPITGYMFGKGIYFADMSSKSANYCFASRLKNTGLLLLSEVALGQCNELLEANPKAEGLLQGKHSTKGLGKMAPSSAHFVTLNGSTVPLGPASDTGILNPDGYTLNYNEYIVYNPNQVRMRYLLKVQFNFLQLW

[4] = Solubility of the compound at pH 6.8; format: physicochemical; details: buffer
[5] = Hepatic extraction ratio in mouse liver microsomes; format: ADME, Microsome; details: read-out: ERH
[6] = Hepatic extraction ratio in human liver microsomes; format: ADME, Microsome; details: read-out: ERH
[7] = biological target: T2, Poly [ADP-ribose] polymerase tankyrase-1 (Homo sapiens, UniProt O95271); assay: Inhibition of N-terminal GST-tagged human TNKS1 expressed in baculovirus infected sf21 cells after 60 mins by LC-MS analysis
T2 sequence (O95271 whole entry): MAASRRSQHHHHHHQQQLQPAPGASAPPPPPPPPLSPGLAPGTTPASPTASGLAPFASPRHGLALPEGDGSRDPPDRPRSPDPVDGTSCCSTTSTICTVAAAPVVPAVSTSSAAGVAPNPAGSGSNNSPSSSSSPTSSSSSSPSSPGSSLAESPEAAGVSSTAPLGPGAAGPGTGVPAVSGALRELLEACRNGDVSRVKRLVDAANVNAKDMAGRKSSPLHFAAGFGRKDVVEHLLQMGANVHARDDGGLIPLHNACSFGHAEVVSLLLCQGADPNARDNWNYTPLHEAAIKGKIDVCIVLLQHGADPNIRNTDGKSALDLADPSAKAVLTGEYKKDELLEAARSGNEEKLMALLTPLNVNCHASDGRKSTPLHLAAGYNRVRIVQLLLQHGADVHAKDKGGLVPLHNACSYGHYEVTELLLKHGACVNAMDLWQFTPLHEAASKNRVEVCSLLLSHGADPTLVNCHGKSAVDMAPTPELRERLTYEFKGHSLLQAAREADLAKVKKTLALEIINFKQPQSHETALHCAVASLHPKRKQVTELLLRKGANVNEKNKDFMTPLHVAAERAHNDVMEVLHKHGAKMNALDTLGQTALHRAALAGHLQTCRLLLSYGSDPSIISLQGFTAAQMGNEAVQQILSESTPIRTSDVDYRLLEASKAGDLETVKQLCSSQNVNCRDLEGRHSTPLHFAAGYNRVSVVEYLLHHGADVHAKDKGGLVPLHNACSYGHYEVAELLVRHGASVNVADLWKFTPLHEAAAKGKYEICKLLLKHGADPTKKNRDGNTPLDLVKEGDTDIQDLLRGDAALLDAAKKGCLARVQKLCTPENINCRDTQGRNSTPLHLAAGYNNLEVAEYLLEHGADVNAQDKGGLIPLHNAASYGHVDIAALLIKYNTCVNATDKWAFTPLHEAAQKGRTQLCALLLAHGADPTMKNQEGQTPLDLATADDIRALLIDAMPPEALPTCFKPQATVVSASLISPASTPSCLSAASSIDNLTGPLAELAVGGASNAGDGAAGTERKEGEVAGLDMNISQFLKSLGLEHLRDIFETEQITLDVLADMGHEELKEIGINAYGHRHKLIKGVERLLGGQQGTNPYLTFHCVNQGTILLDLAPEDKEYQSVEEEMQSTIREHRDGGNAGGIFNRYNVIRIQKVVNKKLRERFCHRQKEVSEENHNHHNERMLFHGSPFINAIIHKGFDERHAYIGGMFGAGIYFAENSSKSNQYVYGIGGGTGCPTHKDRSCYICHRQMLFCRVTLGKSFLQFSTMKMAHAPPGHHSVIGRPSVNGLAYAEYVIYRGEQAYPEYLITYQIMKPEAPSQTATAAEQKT

[8] = Inhibition of TNKS in human SW480 cells assessed as stabilization of axin2 after 24 hrs by ELISA; format: cell-based

Row | IC50 [1] [nM] | IC50 [2] [nM] | SMILES | other results
1 | 138 | 6290 | O=C(CCc1cccnc1)Nc1nnc2n1CCS2 | –
2 | 39 | 1670 | O=C(CCc1ccccc1)Nc1nnc2n1CCS2 | –
3 | 195 | > 10000 | Cc1n[nH]c(C)c1CCC(=O)Nc1nnc2n1CCS2 | –
4 | 1790 | > 10000 | O=C(CCn1cncn1)Nc1nnc2n1CCS2 | –
5 | 2320 | > 50000 | O=C(CCC1CCNCC1)Nc1nnc2n1CCS2 | –
6 | 89 | 4520 | O=C(CCCC1CCCCC1)Nc1nnc2n1CCS2 | –
7 | 980 | – | CC(C)CC(=O)Nc1nnc2n1CCCS2 | –
8 | 134 | 12700 | O=C(CCc1ccncc1)Nc1nnc2n1CCS2 | –
9 | 353 | 47800 | CC(C)(C)c1ccc(C(=O)Nc2nnc3n2CCCS3)cc1 | IC50 [3]: > 19000 nM
10 | 88 | 5350 | O=C(CCc1ccco1)Nc1nnc2n1CCS2 | –
11 | 250 | – | O=C(Nc1nnc2n1CCS2)c1ccccc1 | –
12 | 303 | 6460 | O=C(CCCc1ccccc1)Nc1nnc2n1CCS2 | –
13 | 220 | 12800 | O=C(Nc1nnc2n1CCS2)C1CCCC1 | –
14 | 33 | 1210 | Cc1cccc(C)c1CCC(=O)Nc1nnc2n1CCS2 | –
15 | 9 | 194 | O=C(CCC1CCCC1)Nc1nnc2n1CCS2 | solubility [4]: 630 µM (≈ 168 µg/mL); hepatic extraction ratio [5]: 0.91; hepatic extraction ratio [6]: 0.68; IC50 [7]: 28 nM; IC50 [8]: 3080 nM
16 | 8 | 169 | O=C(CCC1CCCCC1)Nc1nnc2n1CCS2 | solubility [4]: 520 µM (≈ 146 µg/mL); hepatic extraction ratio [5]: 0.95; hepatic extraction ratio [6]: 0.2; IC50 [7]: 32 nM; IC50 [8]: > 10000 nM
17 | 20 | 429 | O=C(CC1CCCCC1)Nc1nnc2n1CCS2 | –
18 | 264 | 13800 | O=C(Nc1nnc2n1CCS2)C1CCC1 | –
